The test system of assay [1] is Gag CA-SP1 cleavage in wild type NL4-3. To be noted: virus produced by 293T cells in presence of compound; Western blot. On the technique in general: A western blot detects proteins with antibodies after separation by electrophoresis.
The test system of assay [2] is Gag CA-SP1 cleavage in NL4-3/V370A. Kind of assay: Anti-HIV-1 maturation assay. To be noted: virus produced by 293T cells in presence of compound; Western blot. It is filed as cell-based.
Assay [3] has as its system BVM-R HIV-1 variants (V370Δ, V370A, V362I, T371Δ). The assay is described as follows: Multi-cycle viral replication in MT4 cell assay, panel of BVM-R variants. It is filed as cell-based. To be noted: for sensitivity of BVM-R viruses to the compound: BVM-R variants.
Assay [4] deals with HIV-1 NL4-3 Env-mediated cell-cell fusion. Kind of assay: Fusion assay. It is filed as cell-based. The conditions noted are these: COS cells expressing Env mixed with TZM-bl cells; luciferase.
Assay [5] concerns Gag CA-SP1 cleavage in NL4-3/V362I. The assay is described as follows: Anti-HIV-1 maturation assay. It is filed as cell-based. The conditions noted are these: virus produced by 293T cells in presence of compound; Western blot.
A further assay deals with NL4-3/V370A. Kind of assay: Multi-cycle viral replication in MT4 cell assay. The assay is classed as cell-based, HIV-1. The conditions noted are these: relative to compound 1.
Another assay has as its system HIV-1 NL4-3. To be noted: relative to compound 1; cited from earlier work.

“Also recorded” adds a separate entry of the source.

With `C=C(C)[C@@H]1CC[C@]2(C(=O)O)CC[C@]3(C)[C@H](CC[C@@H]4[C@@]5(C)CC[C@H](OC(=O)CC(C)(C)C(=O)O)C(C)(C)[C@@H]5CC[C@]43C)[C@@H]12` [Compound 1, 3-O-(3’,3’-dimethylsuccinyl)-betulinic acid], the “inhibition of Gag CA-SP1 cleavage (p25 accumulation), wild type NL4-3” value in assay [1] is on record as “interfered with the cleavage of Gag CA-SP1”. For the same compound, the “inhibition of Gag CA-SP1 cleavage (p25 accumulation), NL4-3/V370A” value in assay [2] was “did not inhibit the cleavage of Gag CA-SP1”. Further, the “sensitivity of BVM-R viruses to the compound” value (from here on “sensitivity of BVM-R viruses”) in assay [3] was “not sensitive”. Besides, the “inhibition of HIV-1 entry / Env-mediated cell-cell fusion” value in assay [4] is given as “do not inhibit HIV-1 entry”.

As for `C=C(C)[C@@H]1CC[C@]2(C(=O)NCCCCCCCCC(=O)N[C@@H](CCC(N)=O)C(=O)OC)CC[C@]3(C)[C@H](CC[C@@H]4[C@@]5(C)CC[C@H](OC(=O)CC(C)(C)C(=O)O)C(C)(C)[C@@H]5CC[C@]43C)[C@@H]12` [Compound 6, Methyl N-[N’-[3β-O-(3’,3’-dimethylsuccinyl)-betulinic acid-28-oyl]-9-aminononanoyl]-L-glutaminate], in assay [5], the “inhibition of Gag CA-SP1 cleavage (p25 accumulation), NL4-3/V362I” value is “accumulation of p25 was even more pronounced”. Also, the “inhibition of Gag CA-SP1 cleavage (p25 accumulation), NL4-3/V370A” value in assay [2] was “resulted in accumulation of CA-SP1 (p25)”. Also, in the assay with NL4-3/V370A, the “fold more potent than 1 against the replication of NL4-3/V370A” value was “at least 20 fold”. Besides, in assay [3], the “sensitivity of BVM-R viruses” value is given as “sensitive”. Further, the “fold more potent than 1 against four BVM-R viruses” value in assay [3] (relative to compound 1) is given as “at least 20 fold”. For the same compound, the “inhibition of HIV-1 entry / Env-mediated cell-cell fusion” value in assay [4] is “do not inhibit HIV-1 entry; also recorded: did not inhibit”.

For the compound `C=C(C)[C@@H]1CC[C@]2(C(=O)N3CCN(CCCCC(=O)O)CC3)CC[C@]3(C)[C@H](CC[C@@H]4[C@@]5(C)CC[C@H](OC(=O)CC(C)(C)C(=O)O)C(C)(C)[C@@H]5CC[C@]43C)[C@@H]12` [Compound 30, N-[3β-O-(3′,3′-dimethylsuccinyl)lup-20(29)-en-28-oyl]-5-piperazinepentanoic acid], the “increase in anti-HIV-1 maturation activity” value with HIV-1 NL4-3 is reported as “greater than 10 fold”. Moreover, the “sensitivity of BVM-R viruses” value in assay [3] is recorded as “ineffective; also recorded: not effective”.

The values are drawn from article PMC3600082 (Journal of medicinal chemistry, 2013).
